Experimental data: patent publication US20030027835A1 (priority 1999, published 2003)
Counter-ions that a name gives are not always drawn.

Assays:
[1] = test system: PGE2-induced hyperalgesia; experiment: PGE2-induced hyperalgesia in the rat (Randall and Selitto test)
rabbit corneal reflex = experiment: corneal reflex testing in rabbits (local anesthetic effect); type: in vivo
Text: FIG. 4: Local anesthetic effect of TMB (A) and lidocaine (B) as determined in the rabbit corneal reflex. The values represent the median of percentage of inhibition of corneal reflex calculated for each set of 10 stimulations. The x axis represents time (in minutes) following instillations.*P<0.05; **P<0.01 compared with the control group treated with the vehicle (Mann-Whitney U test).
White New-Zealand male rabbits (CEGAV, Les Hauts Noës, Saint Mars d'Egrenne, France) weighing 1.9-2.7 kg were used. Animals were housed individually in cages placed in an air-conditioned (17-21° C.) animal house kept between 45% and 65% relative humidity and with an artificial day/night cycle (12 h-12 h) with light on at 7.30 am.
Test substances are administered as solutions in sterile water (Baxter, Maurepas, France). The concentrations of test substances are expressed as percentage (weight/volume) of active compound (base form). Each test substance at each concentration is tested on the two eyes of 5 animals (i.e. 10 measurements per substance and per concentration). On the day of the study, animals are placed in restraint cages in a quiet room. Twenty to 30 minutes later, a first measurement of the corneal sensitivity is performed. Any animal presenting a partial or complete corneal insensitivity or any ocular lesion before administration is excluded from the study. Immediately after the first measurement, 2×50 μl of test substances or their vehicle are applied to the cornea. The two instillations were undertaken on each eye at a one-minute interval. Corneal sensitivity is subsequently measured at 5, 10, 20, 30, 40, 50 and 60 minutes following the instillations, and then at 2, 3 and 4 hours after the instillations. Corneal sensitivity is measured by touching gently the center of the cornea with a loop-shape nylon yarn (0.3 mm diameter). For each measurement, this operation is repeated 10 times at regular 2 second intervals. The number of stimulations producing a corneal reflex is noted for each set and for each eye.
Results are expressed as percentage of inhibition of the corneal reflex calculated for each set of 10 stimulations:
% inhibition of corneal reflex=10-(number of stimulations inducing a corneal reflex)×10
For each experimental group, median values are determined. The effects of test compounds are compared with those of the vehicle using a Mann-Withney non-parametric U test at each time of measurement. Areas under curves are calculated over the first 60-minute period following instillation for each animal and each concentration by the trapezoidal method of Bourget et al., 1993. The relative potency of TMB) is compared to that of lidocaine hydrochloride from respective mean areas under curves using a covariance analysis.

[2] = test system: sodium currents in rat dorsal root ganglia (DRG) neurons; type: cell-based

CCC(COC(=O)c1cc(OC)c(OC)c(OC)c1)(c1ccccc1)N(C)C.O=C(O)/C=C\C(=O)O (racemic) [Trimebutine, 2-dimethylamino-2-phenylbutyl 3,4,5-trimethoxybenzoate hydrogen maleate]
% of analgesic activity ([1]; Trimebutine 100 mg/kg s.c. (T2 of FIG. 5)): 27%
duration of local anesthetic effect (rabbit corneal reflex; 0.1% concentration): 20 min
potency relative to lidocaine (rabbit corneal reflex; comparison of areas under the curve over first 60 min): 17 fold
duration of complete local anesthesia (rabbit corneal reflex; instillation of 0.3% or 1%): more than 60 min
concentration giving first significant local anesthetic effects (rabbit corneal reflex; rabbit cornea, instillation): 0.1%
blocking rate kon [2]: 35-40 10^−3 s^−1 μM^−1

CCN(CC)CC(=O)Nc1c(C)cccc1C [lidocaine, lidocaine hydrochloride]
duration of complete local anesthetic effect (rabbit corneal reflex; 6% concentration): 25 min
inhibition of corneal reflex (rabbit corneal reflex; 6% concentration, 60 min after instillation): no more inhibition
local anesthetic activity (rabbit corneal reflex; up to the concentration of 0.3%): inactive

CN1CC[C@]23c4c5ccc(O)c4O[C@H]2[C@@H](O)C=C[C@H]3[C@H]1C5 [Morphine, morphine]
% of analgesic activity ([1]; Morphine 0.3 mg/kg s.c., 30 min before test (T1 of FIG. 5)): 22%
% of analgesic activity ([1]; Morphine 3 mg/kg s.c. (M3 of FIG. 6)): 64%
